Assay results as given in BindingDB's records for doi:10.1021/jm801475n (University of Dundee, 2009).

Target: T1, 2-C-methyl-D-erythritol 2,4-cyclodiphosphate synthase (Escherichia coli (strain K12), UniProt P62617)
T1 sequence (P62617 whole entry): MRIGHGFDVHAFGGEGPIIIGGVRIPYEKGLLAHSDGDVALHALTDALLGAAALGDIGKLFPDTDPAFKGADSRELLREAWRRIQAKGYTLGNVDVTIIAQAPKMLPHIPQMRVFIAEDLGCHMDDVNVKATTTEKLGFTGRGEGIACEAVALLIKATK
Test: SPR Biosensor Assay
Settings: pH 7; 10 °C
Method: An SPR assay was used to determine the binding affinities of compounds. Experiments were performed on a Biacore 3000 (Biacore, Uppsala, Sweden) instrument with CM5 research grade chips (Biacore, Uppsala, Sweden). Sensorgrams were recorded at a frequency of 2.5 Hz. EcIspF was immobilized using amine-coupling chemistry with readings between 4500 and 5500 response units were obtained. After immobilization, a 6 min injection at 5 uL min-1 of 1 M ethanolamine was used to quench excess active succinamide ester groups. SPR binding experiments with EcIspF were performed at 10 deg C in 50 mM sodium phosphate pH 7 and 2 mM MgCl2 at a flow rate of 30 uL min-1. The sensor surface was regenerated between experiments by applying the running buffer for 20 min to dissociate any ligand complex. This was followed by a further 20 min stabilization period. The 40 min total regeneration time between experiments helped to eliminate any carry-over of EcIspF bound to ligand. Each injection at a given concentration was repeated three times. Blank injections were included for each measurement series and subtracted from the data. The equilibrium (steady state) binding curves were analyzed by nonlinear regression and fit to a one-to-one Langmuir binding model. All ligands assessed by SPR were greater than 95% purity as established by high-performance liquid chromatography or combustion analysis.

## N[C@@H](Cc1c[nH]c2ccccc12)C(=O)NO [Tryptophanhydroxamate, 13]
  Kd: 1.92 µM
